Reference: patent publication US20140113912A1, “TREATMENT AND MANAGEMENT OF CNS DISORDERS” (priority 2011, published 2014)
“Also recorded” adds a separate entry of the source.

Legend:
[1] = tested on: glutamate; assay: Metabolomic analysis of plasma samples: glutamate level; type: in vivo, human
Text: (§1) Blood samples were taken at 4 days and 6 weeks following treatment. Plasma samples were isolated from whole blood and used for global metabolomic profiling.
(§2) At the time of analysis, samples were thawed and extracts prepared according to a standard protocol, which is designed to remove protein, dislodge small molecules bound to protein or physically trapped in the precipitated protein matrix, and recover a wide range of chemically diverse metabolites. A separate aliquot of each experimental plasma sample was taken then pooled for the creation of “Client Matrix” (CMTRX) samples. These CMTRX samples were injected throughout the platform run and served as technical replicates, allowing variability in the quantitation of all consistently detected biochemicals to be determined and overall process variability and platform performance to be monitored. Extracts of all experimental and CMTRX samples were split for analysis on the GC/MS and LC/MS/MS platforms.
(§3) The CMTRX technical replicate samples were treated independently throughout the process as if they were study samples. All process samples (CMTRX, GROBs—a mixture of organic components used to assess GC column performance, process blanks, etc.) were spaced evenly among the injections for each day and all client samples were randomly distributed throughout each day's run. Data were collected over eight platform run days and thus, ‘block normalized’ by calculating the median values for each run-day block for each individual compound. […] Missing values (if any) were assumed to be below the level of detection for that biochemical with the instrumentation used and were imputed with the observed minimum for that particular biochemical.
A number of internal standards were added to each experimental and process standard sample just prior to injection into the mass spectrometers. A measure of the platform variability was determined by calculating the median relative standard deviation (RSD) for these internal standards. […] Because these standards were added to the samples immediately prior to injection into the instrument, this value reflects instrument variation. In addition, the median relative standard deviation (RSD) for the biochemicals that were consistently measured in the CMTRX represents the total variability within the process for the actual experimental samples and the variability in quantitation of the endogenous metabolites within these samples (Table 2).
Biochemical data were analyzed by ANOVA contrasts and a Two-way ANOVA.
(§4) Statistical analyses of the data were performed on natural log-transformed data to reduce the effect of any potential outliers in the data. T-test comparisons were calculated using the one or both of the statistical software analysis programs: Array Studio (Omicsoft, Inc) or ‘R’ from the Free Software Foundation, Inc.
(§5) For t-test comparisons, within each group: placebo, lurasidone and olanzapine, the early versus the late time point was compared (i.e., 4 days versus 6 weeks). In addition, both lurasidone and olanzapine were compared with placebo at the appropriate time point and then lurasidone was compared with olanzapine at both 4 days and 6 weeks.

[2] = tested on: 732 biochemicals; assay: Global metabolomic profiling: number of biochemicals significantly changed; type: in vivo, human; conditions: Day 42; for number of biochemicals significantly decreased / number of biochemicals significantly increased: of 732 biochemicals; for share of biochemicals significantly changed / number of biochemicals whose serum levels were significantly changed: of a total of 732 biochemicals; for number of biochemicals whose serum levels were significantly changed: p≦0.05
Text: as §1, §2, §3
Two parameters are typically evaluated when considering statistical significance, namely the p-value and the q-value. […] The q-value describes the false discovery rate; a low q-value (q≦0.10) is an indication of high confidence in a result. Because of the multiple testing occurring in the data sets produced by metabolomic studies, data is often evaluated for false positives.
as §4, §5

[3] = tested on: glycine; assay: Metabolomic analysis: glycine level; set-up: species or system human; conditions: in vivo
Text: as §1, §2
(§6) The CMTRX technical replicate samples were treated independently throughout the process as if they were study samples. All process samples (CMTRX, GROBs—a mixture of organic components used to assess GC column performance, process blanks, etc.) were spaced evenly among the injections for each day and all client samples were randomly distributed throughout each day's run. […]

[4] = tested on: positive and negative symptoms of schizophrenia; conditions: several placebo-controlled trials; cited from earlier work
[5] = molecular target: T1, muscarinic M1 receptors (Homo sapiens, UniProt P11229); conditions: reported; cited from earlier work
T1 sequence (P11229 1-460): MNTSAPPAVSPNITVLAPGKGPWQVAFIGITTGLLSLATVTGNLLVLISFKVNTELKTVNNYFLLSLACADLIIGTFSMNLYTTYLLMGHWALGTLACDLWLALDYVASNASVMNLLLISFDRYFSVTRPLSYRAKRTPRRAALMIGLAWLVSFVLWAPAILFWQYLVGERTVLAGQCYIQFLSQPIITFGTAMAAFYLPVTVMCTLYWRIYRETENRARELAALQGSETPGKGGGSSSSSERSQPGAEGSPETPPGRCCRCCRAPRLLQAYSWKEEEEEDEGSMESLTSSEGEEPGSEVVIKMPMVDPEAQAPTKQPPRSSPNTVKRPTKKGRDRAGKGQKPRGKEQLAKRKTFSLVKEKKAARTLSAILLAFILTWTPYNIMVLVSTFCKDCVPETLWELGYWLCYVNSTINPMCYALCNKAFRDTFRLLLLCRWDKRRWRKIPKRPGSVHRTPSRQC

[6] = tested on: patient diagnosed schizophrenia; assay: PANSS scoring, 6-week double-blind treatment; type: in vivo, human; conditions: 6 weeks; treatment responders only; lurasidone 40 mg/d, olanzapine 15 mg/d, placebo; FIG. 1
Description: Positive and Negative Syndrome Scale (PANSS) was measured according to the procedures well-established in the art. Clinical interviews were conducted by qualified trained professionals. A patient diagnosed schizophrenia was rated from 1 to 7 on 30 different symptoms based in the interview. The 30 symptoms assessed were: (1) positive symptoms, i.e., delusions, conceptual disorganization, hallucinations, hyperactivity, grandiosity, suspiciousness/persecution and hostility; (2) negative symptoms, i.e., blunted affect, emotional withdrawal, poor rapport, passive/apathetic social withdrawal, difficulty in abstract thinking, lack of spontaneity and flow of conversation and stereotyped thinking; and (3) general psychopathology symptoms, i.e., somatic concern, anxiety, guilt feelings, tension, mannerism and posturing, depression, motor retardation, uncooperativeness, unusual thought content, disorientation, poor attention, lack of judgment and insight, disturbance of volition, poor impulse control, preoccupation and active social avoidance. […]
Prior to the baseline visit, subjects underwent a 3-7 day washout of their current antipsychotic medication and randomized to receive either lurasidone (40 mg per day), olanzapine (15 mg per day) or placebo for 6 weeks. Symptom improvement was assessed by the change in PANSS score (total and subscale scores) from baseline to study endpoint. […]

[7] = molecular target: dopamine D2 (Homo sapiens, UniProt P14416); conditions: reported; cited from earlier work
[8] = molecular target: T2, noradrenaline α2C receptors (Homo sapiens, UniProt P18825); conditions: reported; cited from earlier work
T2 sequence (P18825 1-462): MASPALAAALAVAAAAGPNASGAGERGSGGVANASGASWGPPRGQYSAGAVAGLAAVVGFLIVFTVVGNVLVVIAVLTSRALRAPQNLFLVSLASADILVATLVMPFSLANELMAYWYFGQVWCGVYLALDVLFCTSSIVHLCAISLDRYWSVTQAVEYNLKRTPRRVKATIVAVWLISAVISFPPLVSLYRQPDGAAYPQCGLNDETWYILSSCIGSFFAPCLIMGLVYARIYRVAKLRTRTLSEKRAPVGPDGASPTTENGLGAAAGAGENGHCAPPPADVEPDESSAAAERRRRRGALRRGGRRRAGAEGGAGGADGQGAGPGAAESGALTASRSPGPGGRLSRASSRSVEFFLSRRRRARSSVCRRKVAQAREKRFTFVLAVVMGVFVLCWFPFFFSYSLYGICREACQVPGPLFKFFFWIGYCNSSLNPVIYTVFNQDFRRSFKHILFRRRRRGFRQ

[9] = molecular target: T3, serotonin 5-HT1A (Homo sapiens, UniProt P08908); conditions: reported; cited from earlier work
T3 sequence (P08908 1-422): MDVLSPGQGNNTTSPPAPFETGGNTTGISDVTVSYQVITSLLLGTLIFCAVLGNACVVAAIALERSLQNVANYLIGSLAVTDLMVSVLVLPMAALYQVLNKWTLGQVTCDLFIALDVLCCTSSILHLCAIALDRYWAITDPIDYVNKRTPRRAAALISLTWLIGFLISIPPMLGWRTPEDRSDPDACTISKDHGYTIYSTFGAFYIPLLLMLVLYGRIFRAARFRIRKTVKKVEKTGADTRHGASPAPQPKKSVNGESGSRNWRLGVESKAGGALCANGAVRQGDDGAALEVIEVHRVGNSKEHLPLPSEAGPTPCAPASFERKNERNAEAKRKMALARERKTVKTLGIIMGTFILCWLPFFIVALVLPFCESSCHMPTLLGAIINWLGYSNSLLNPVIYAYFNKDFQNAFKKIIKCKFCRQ

[10] = molecular target: 5-HT7 (Homo sapiens, UniProt P34969); conditions: reported; cited from earlier work
[11] = tested on: serine; assay: Metabolomic analysis: serine level; set-up: species or system human; conditions: in vivo
Text: as §1, §2, §6

[12] = molecular target: 5-HT2A (Homo sapiens, UniProt P28223); conditions: reported; cited from earlier work
[13] = molecular target: histamine H1 (Homo sapiens, UniProt P35367); conditions: reported; cited from earlier work
[14] = tested on: aspartate; assay: Metabolomic analysis: aspartate level; set-up: species or system human; conditions: in vivo
Text: as §1, §2, §6

[15] = Total Sample of treatment responders, lurasidone 40 mg/d, olanzapine 15 mg/d, plasma
[16] = subgroup PANSS Negative Change at Week 6 ≦median change score
[17] = subgroup PANSS Positive Change at Week 6 >median change score
[18] = subgroup PANSS Positive Change at Week 6 ≦median change score
[19] = subgroup PANSS Total Change at Week 6 >median change score
[20] = subgroup PANSS Total Change at Week 6 ≦median change score

Sequence of 5-HT2A (P28223 whole entry, species assumed): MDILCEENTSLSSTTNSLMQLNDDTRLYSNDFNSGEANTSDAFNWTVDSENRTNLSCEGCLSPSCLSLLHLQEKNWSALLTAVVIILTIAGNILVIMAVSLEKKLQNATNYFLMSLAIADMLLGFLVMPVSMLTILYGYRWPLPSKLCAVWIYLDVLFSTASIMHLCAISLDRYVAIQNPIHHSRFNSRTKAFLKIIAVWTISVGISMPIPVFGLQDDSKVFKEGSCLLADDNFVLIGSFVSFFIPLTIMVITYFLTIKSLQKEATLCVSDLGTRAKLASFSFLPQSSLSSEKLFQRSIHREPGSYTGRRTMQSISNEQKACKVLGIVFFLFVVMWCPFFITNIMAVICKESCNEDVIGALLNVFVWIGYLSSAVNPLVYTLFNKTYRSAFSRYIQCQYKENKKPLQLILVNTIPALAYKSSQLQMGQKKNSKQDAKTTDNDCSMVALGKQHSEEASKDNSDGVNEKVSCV
Sequence of histamine H1 (P35367 whole entry): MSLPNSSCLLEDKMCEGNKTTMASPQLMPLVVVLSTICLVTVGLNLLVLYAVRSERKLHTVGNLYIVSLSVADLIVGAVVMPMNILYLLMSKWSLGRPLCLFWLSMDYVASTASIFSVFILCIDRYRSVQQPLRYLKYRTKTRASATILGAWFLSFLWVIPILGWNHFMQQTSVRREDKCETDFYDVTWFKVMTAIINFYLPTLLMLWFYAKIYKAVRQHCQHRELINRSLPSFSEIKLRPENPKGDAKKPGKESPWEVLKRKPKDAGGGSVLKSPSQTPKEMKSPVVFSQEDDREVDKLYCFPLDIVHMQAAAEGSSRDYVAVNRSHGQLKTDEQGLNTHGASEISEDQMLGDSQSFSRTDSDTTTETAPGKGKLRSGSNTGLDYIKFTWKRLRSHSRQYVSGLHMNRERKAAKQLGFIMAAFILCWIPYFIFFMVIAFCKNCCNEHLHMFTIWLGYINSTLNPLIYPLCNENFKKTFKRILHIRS
Sequence of dopamine D2 (P14416 whole entry): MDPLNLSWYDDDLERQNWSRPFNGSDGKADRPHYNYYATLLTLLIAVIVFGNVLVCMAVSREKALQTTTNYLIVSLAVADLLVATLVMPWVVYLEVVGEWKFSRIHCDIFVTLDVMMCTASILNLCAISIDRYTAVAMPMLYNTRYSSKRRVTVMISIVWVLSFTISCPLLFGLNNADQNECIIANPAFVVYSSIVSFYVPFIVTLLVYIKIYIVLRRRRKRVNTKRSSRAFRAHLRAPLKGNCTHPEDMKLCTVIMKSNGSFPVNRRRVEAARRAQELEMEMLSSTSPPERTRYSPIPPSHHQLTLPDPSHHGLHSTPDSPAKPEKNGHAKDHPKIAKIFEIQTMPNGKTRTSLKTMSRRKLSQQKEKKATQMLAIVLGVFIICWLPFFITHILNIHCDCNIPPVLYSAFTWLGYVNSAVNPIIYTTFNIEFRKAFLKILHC
Sequence of 5-HT7 (P34969 whole entry, species assumed): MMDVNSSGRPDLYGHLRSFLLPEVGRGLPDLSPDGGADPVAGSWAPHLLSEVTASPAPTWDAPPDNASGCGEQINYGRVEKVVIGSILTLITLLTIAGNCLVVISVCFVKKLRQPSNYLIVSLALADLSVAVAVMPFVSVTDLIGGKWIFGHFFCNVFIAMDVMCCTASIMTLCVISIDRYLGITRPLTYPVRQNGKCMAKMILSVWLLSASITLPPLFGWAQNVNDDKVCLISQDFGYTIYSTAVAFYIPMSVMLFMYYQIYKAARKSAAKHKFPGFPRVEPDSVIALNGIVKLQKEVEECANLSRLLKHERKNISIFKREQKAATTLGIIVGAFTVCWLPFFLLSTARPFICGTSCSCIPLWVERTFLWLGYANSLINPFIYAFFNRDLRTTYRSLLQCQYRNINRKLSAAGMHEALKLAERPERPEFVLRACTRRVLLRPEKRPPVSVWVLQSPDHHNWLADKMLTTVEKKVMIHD

Compound: Cc1cc2c(s1)Nc1ccccc1N=C2N1CCN(C)CC1 [Olanzapine, olanzapine]
- Glutamate Levels at Week 6, mean (SD) [1, 15]: 1.00 (0.24)
- Glutamate Levels at Week 6, mean (SD) ([1]; subgroup PANSS Negative Change at Week 6 >median change score, *lurasidone vs. olanzapine P = 0.014, vs placebo P = 0.025): 0.97 (0.26)
- Glutamate Levels at Week 6, mean (SD) [1, 16]: 1.03 (0.23)
- Glutamate Levels at Week 6, mean (SD) [1, 17]: 1.02 (0.27)
- Glutamate Levels at Week 6, mean (SD) [1, 18]: 0.98 (0.22)
- Glutamate Levels at Week 6, mean (SD) [1, 19]: 1.01 (0.27)
- Glutamate Levels at Week 6, mean (SD) [1, 20]: 0.99 (0.26)
- number of biochemicals significantly decreased [2]: 46
- number of biochemicals significantly increased [2]: 54
- share of biochemicals significantly changed [2]: 14%
- number of biochemicals whose serum levels were significantly changed [2]: 100

Compound: O=C1[C@@H]2[C@H]3CC[C@H](C3)[C@@H]2C(=O)N1C[C@@H]1CCCC[C@H]1CN1CCN(c2nsc3ccccc23)CC1 [Lurasidone]
- level of glycine upon treatment [3]: increased
- ameliorating the positive and negative symptoms of schizophrenia [4]: effective
- affinity for muscarinic M1 receptors [5]: minimal to no affinity
- improvement in PANSS total, positive and negative subscores across treatment groups [6]: comparable
- affinity for dopamine D2 [7]: high affinity
- affinity for noradrenaline α2C receptors [8]: high affinity
- affinity for serotonin 5-HT1A [9]: high affinity; also recorded: moderate affinity
- affinity for 5-HT7 [10]: high affinity
- Glutamate Levels at Week 6, mean (SD) [1, 15]: 1.12 (0.34)
- overall glutamate level compared with the placebo group ([1]; days 4 and weeks 6, treatment responders, FIG. 2): significantly greater
- Glutamate Levels at Week 6, mean (SD) [1, 16]: 1.00 (0.28)
- Glutamate Levels at Week 6, mean (SD) [1, 17]: 1.14 (0.41)
- Glutamate Levels at Week 6, mean (SD) [1, 18]: 1.09 (0.23)
- Glutamate Levels at Week 6, mean (SD) [1, 19]: 1.13 (0.38)
- Glutamate Levels at Week 6, mean (SD) [1, 20]: 1.09 (0.27)
- glutamate level in responders with high improvement in negative symptoms compared with other responder groups ([1]; week 6, PANSS negative change above median, FIG. 3): significantly higher increase; also recorded: significantly higher than all other responder groups
- relation between levels of glutamate and change in PANSS negative subscore ([1]; week 6, scatterplot FIG. 4): proportional
- level of serine upon treatment [11]: increased
- affinity for 5-HT2A [12]: high affinity
- affinity for histamine H1 [13]: minimal to no affinity
- level of aspartate upon treatment [14]: increased
- number of biochemicals significantly decreased [2]: 14
- number of biochemicals significantly increased [2]: 11
- share of biochemicals significantly changed [2]: 3%
- number of biochemicals whose serum levels were significantly changed [2]: 25
